In brackets after ≈: the same amount, converted by molar mass. Numbered stars: 1 amine (or outer) side, 2 acyl side, 3 side chain; on linkers, the order of the positions; unused ones are H or OH. Bridge positions count the residues as written; N and C are the ends. Square brackets hold non-standard residues; d marks the D form. Peptide text beside a SMILES is read from it. * marks the point of attachment. X1 = O=C1C[C@@H](C(=O)[*:2])N([*:1])C[C@H]1CS[C@@H]1CN2CCC1CC2; NMePhe(4-NMe2) = CN[C@@H](Cc1ccc(N(C)C)cc1)C(=O)O; Picolinoyl(3-OH) = O=C(c1ncccc1O)*; Phg = N[C@H](C(=O)O)c1ccccc1; dAbu = CC[C@@H](N)C(=O)O
Experiments:
[1] = system: invasive pneumococcal isolates; assay: Preliminary screening of 1998 invasive pneumococcal isolates for quinupristin resistance; assay type: cell-based, S. pneumoniae
[2] = system: S. pneumoniae isolates; assay: Antimicrobial susceptibility (NCCLS guidelines) of invasive S. pneumoniae isolates; assay type: cell-based; details: Streptococcus pneumoniae
[3] = system: pneumococci containing ermAM; details: typical value; cited from earlier work
[4] = system: MefE; details: proton motive function of MefE; refs [9,10]; cited from earlier work

CC[C@H]1NC(=O)[C@@H](NC(=O)c2ncccc2O)[C@@H](C)OC(=O)[C@H](c2ccccc2)NC(=O)[C@@H]2CC(=O)[C@H](CS[C@@H]3CN4CCC3CC4)CN2C(=O)[C@H](Cc2ccc(N(C)C)cc2)N(C)C(=O)[C@@H]2CCCN2C1=O [quinupristin] ({Picolinoyl(3-OH)}-T[dAbu]P[NMePhe(4-NMe2)][X1][Phg]; ester 1-C)
Share of isolates resistant [1]: approximately half were resistant

CC[C@H]1OC(=O)[C@H](C)[C@@H](O[C@H]2C[C@@](C)(OC)[C@@H](O)[C@H](C)O2)[C@H](C)[C@@H](O[C@@H]2O[C@H](C)C[C@H](N(C)C)[C@H]2O)[C@](C)(O)C[C@@H](C)C(=O)[C@H](C)[C@@H](O)[C@]1(C)O [erythromycin]
MIC ([2]; eighty-nine mefE-containing isolates, January 1994 to February 1996): ≥ 4 µg/mL
MIC ([2]; subset of 336 erythromycin-resistant isolates, 1994-1996 and 1998): 4 µg/mL (≈ 5.45 µM)
Erythromycin MIC [3]: 64 µg/mL

N#CC(C#N)=NNc1cccc(Cl)c1 [carbonylcyanide-m-chlorophenylhydrazone]
Effect on efflux of [14C]-erythromycin [4]: decrease in the efflux

arsenate
Effect on efflux of [14C]-erythromycin [4]: decrease in the efflux
